This passage reports melting point results from a melting point compilation (Tetko et al.).

Molecules are shown by their SMILES.

On to `CCC(Oc1ccccc1Cl)C(=O)O` (stereo unspecified), for which the melting point (usually the temperature, or range, at which the solid turns liquid) lay within 82 to 84 °C.
With `CS(=O)(=O)c1ccccc1N` the figure was 62 to 64 °C; with `Cc1cc(C)c(C)c(S(=O)(=O)N2CCC(C(=O)O)CC2)c1C`, 107 to 109 °C.
`FC(F)(F)c1ccc(C2CCCCN2)cc1` (stereo unspecified): the melting point lay in the range of 36 to 38 °C.
Consider `O=C(c1ccncc1)c1cc(F)ccc1F`, for which the melting point was 53 to 55 °C.
In the case of `O=C1NCC(=O)N2CCCCC12` (stereo unspecified), the melting point lay within 153 to 155 °C.
In the case of `O=C(O)C1(c2cccc(Cl)c2)CCCC1` it was 150 to 152 °C.
In the case of `COc1cc(N)c(C(N)=O)cc1OC` it was 142 to 144 °C; in that of `O=C1OC(=O)c2cc(F)c(F)cc21`, 94 to 96 °C; in that of `O=C(O)c1cc(-c2cccnc2)nc2nc(N3CCCC3)sc12`, 329 to 331 °C.
`CC(=O)c1ccc(N2CCCS2(=O)=O)cc1` displayed a melting point of 137 to 139 °C.
Regarding `COc1ccc(Cl)cc1NS(=O)(=O)c1cccc(C(=O)O)c1`, the melting point is 155 to 157 °C.
As to `COc1ccc(C(=O)N2CCOCC2)cc1N`, the melting point lay within 150 to 152 °C.
In the case of `O=Cc1cc(Br)c2c(c1)OCCO2` it was 99 to 101 °C; in that of `Nc1cc(-c2cccc(Cl)c2)nn1CCO`, 146 to 148 °C.
`Cc1ccccc1C1(C(=O)O)CCOCC1` returned a melting point of 170 to 172 °C.
The molecule `NC(=NO)c1cccc([N+](=O)[O-])c1` returned a melting point of 182 to 184 °C.
`CC1CC(O)CC(C)N1` (stereo unspecified) yielded a melting point of 109 to 111 °C.
In the case of `CC(C)Cn1c(=O)[nH]c(=O)c2c(S)nc(CC3CC4CCC3C4)nc21` (stereo unspecified) it was 311 to 313 °C; in that of `CC(C(=O)O)S(=O)(=O)Cc1cccc(Br)c1` (stereo unspecified), 109 to 111 °C.
Consider `NCc1cccc(N)n1`, for which the melting point was 93 to 95 °C.
On to `Clc1cc(Cl)nc(-c2ccccn2)n1`, for which the melting point lay in the range of 142 to 144 °C.
In turn, `CCC(=O)NNC(=O)C(C)Cl` (stereo unspecified) came in with a melting point of 157 to 159 °C.
Molecule `O=C(O)c1cc(S(=O)(=O)Cl)cc(Cl)c1Cl` showed a melting point of 151 to 153 °C.
Consider `NS(=O)(=O)N1CCOCC1`, for which the melting point lay within 161 to 163 °C.
Consider `O=Cc1ccc(-n2cncn2)c(F)c1`, for which the melting point lay in the range of 127 to 129 °C.
On to `O=C(O)CCc1nc2ccccc2[nH]c1=O`, for which the melting point lay within 263 to 265 °C.
In the case of `O=C(O)c1cccc(C(F)(F)C(F)(F)F)c1` it was 94 to 96 °C; in that of `NNc1ccc([N+](=O)[O-])cc1Cl`, 145 to 147 °C; in that of `CNCc1c(Cl)ncnc1N(C)C`, 43 to 45 °C.
The molecule `CC(NC(=O)c1ccc2[nH]ncc2c1)C(=O)O` (stereo unspecified) showed a melting point of 229 to 231 °C.
As to `N#CC(c1ccccc1)(c1ccc(F)cc1)c1ccc(F)cc1`, the melting point was in the range of 74 to 76 °C.
The molecule `Cc1nc(CCC(=O)O)oc1-c1ccc(Br)cc1` gave a melting point of 179 to 181 °C.
`Nc1nnc(-c2cccnc2)[nH]1` returned a melting point of 207 to 209 °C.
Take `O=c1[nH]nc2cncc(Cl)n12`: the melting point is 169 to 171 °C.
In turn, `Sc1nc(-c2ccccc2)c[nH]1` registered a melting point of 262 to 264 °C.
`Clc1ccc(Cl)c(OCC2CO2)c1` (stereo unspecified) registered a melting point of 62 to 64 °C.
With `CN(C)S(=O)(=O)c1ccc(C(=O)CBr)cc1`, the melting point is 90 to 92 °C.
In turn, `CC(=O)c1cc(Cl)cc(CCl)c1O` came in with a melting point of 72 to 74 °C.
`Cn1cc(Cl)cc1C(=O)NN` returned a melting point of 168 to 170 °C.
As for `Cc1ccccc1/C=C/c1cc(C(=O)O)c2cc(Br)ccc2n1`, the melting point was 289 to 291 °C.
In the case of `COc1cc(C(C)=O)ccc1OCCCC(=O)O` it was 163 to 165 °C; in that of `O=S(=O)(Cl)c1cccc2c1OCCO2`, 74 to 76 °C; in that of `O=C(O)CCNC(=O)NC1CCCCC1`, 163 to 165 °C.
Regarding `COc1ccc(CC#N)c(Cl)c1OC`, the melting point fell in the range of 55 to 57 °C.
`O=C(O)c1cc(-c2ccc(Cl)s2)nc2ccccc12` yielded a melting point of 242 to 244 °C.
`NCCN1C(=O)Cc2ccccc21`: the melting point is 88 to 90 °C.
As for `Cc1c(C(F)(F)F)cccc1S(N)(=O)=O`, the melting point is 149 to 151 °C.
In turn, `COC(=O)C(N)c1ccc2ccccc2c1` (stereo unspecified) registered a melting point of 56 to 58 °C.
With `COCc1nc2cc(N)ccc2o1` the figure was 54 to 56 °C; with `Cc1nnnn1C(Cc1cccc(F)c1)C(=O)O` (stereo unspecified), 158 to 160 °C.
The molecule `NNC(=O)c1cc(-c2ccncc2)nc2ccccc12` gave a melting point of 226 to 228 °C.
Molecule `COc1ccc2cc(N)ccc2n1` showed a melting point of 101 to 103 °C.
For the molecule `Cc1oc2cc(O)ccc2c(=O)c1-c1ccccc1Cl`, the melting point lay within 182 to 184 °C.
Take `CC(C)(C)CS(N)(=O)=O`: the melting point lay in the range of 119 to 121 °C.
`Cc1ccc(-n2nc(Br)cc2C(=O)O)cc1` yielded a melting point of 219 to 221 °C.
Molecule `O=C(O)c1ccc(I)c(F)c1` returned a melting point of 233 to 235 °C.
In the case of `Fc1ccc(NC2CCN(c3ccncc3)CC2)cc1` it was 151 to 153 °C; in that of `CC(C)(C)OC(=O)Nc1snnc1C(=O)O`, 139 to 141 °C.
Molecule `Cc1cc2n(n1)C(C(F)(F)F)CCN2` (stereo unspecified) came in with a melting point of 169 to 171 °C.
`O=C(CCl)NCc1ccccc1[N+](=O)[O-]` registered a melting point of 93 to 95 °C.
With `NNC(=O)Cc1cn2ccccc2n1`, the melting point lay within 128 to 130 °C.
With `CC1CC(C(=O)O)CC(=O)N1` (stereo unspecified) the figure was 159 to 161 °C; with `O=C(c1ccc(Cl)c([N+](=O)[O-])c1)N1CCCCC1`, 74 to 76 °C; with `CCOc1ccc(N)c(C(F)(F)F)c1`, 69 to 71 °C.
Take `O=C(O)c1cccnc1OCC(F)(F)F`: the melting point fell in the range of 122 to 124 °C.
In the case of `O=C(NC1CCN(Cc2ccccc2)CC1)c1ccco1` it was 158 to 160 °C; in that of `CC(C)NC(=O)Nc1cccc(C(=O)O)c1`, 239 to 241 °C; in that of `CCOC(=O)Cc1nc(-c2ccc(OC)c(OC)c2)no1`, 75 to 77 °C.
With `CCOc1ccc(C(=O)O)cc1C` the figure was 198 to 200 °C; with `CCN(CC)c1ccc(C=C[N+](=O)[O-])cc1`, 98 to 100 °C; with `CCOc1ccc(C(C)=O)cc1CN1CCOCC1`, 33 to 37 °C.
`Cc1cc(C)c2nc(Cl)cc(C)c2c1` came in with a melting point of 128 to 132 °C.
For the molecule `CC(C)c1cc(NC(=O)CCl)on1`, the melting point lay within 75 to 77 °C.
In turn, `Nc1cc(C(=O)O)ccc1N1CCSCC1` registered a melting point of 252 to 254 °C.
With `Nc1nnc(Cc2cccc(F)c2)o1` the figure was 146 to 148 °C.
As for `Cn1cc(S(=O)(=O)NCC(=O)O)cn1`, the melting point was in the range of 201 to 203 °C.
`Cc1cc2c(N3CCCC3C(=O)O)ncnc2s1` (stereo unspecified) came in with a melting point of 129 to 131 °C.
`CS(=O)(=O)c1cc(Br)cc(C(=O)O)c1F` returned a melting point of 209 to 211 °C.
Turning to `OCc1csc(-c2ccccn2)n1`, the melting point was in the range of 95 to 97 °C.
With `Oc1ccc(OC2CCCCC2)cc1` the figure was 63 to 65 °C; with `CC(=O)c1ccc(OC2CCCCC2)cc1`, 74 to 76 °C.
In turn, `CCNC(=O)c1ccc(F)cc1Br` returned a melting point of 103 to 105 °C.
In the case of `NC(=O)COc1ccc(O)cc1` it was 154 to 156 °C.
With `Cc1nc(-c2ccc(Br)cc2)n[nH]1` the figure was 190 to 192 °C; with `O=C(O)CNS(=O)(=O)c1ccc2c(c1)OCCCO2`, 75 to 77 °C.
In turn, `Cc1cc(C(=O)CCl)c(C)n1-c1cccc(F)c1` came in with a melting point of 90 to 94 °C.
`CC(C)(C)C(=O)N1CCCC(C(=O)O)C1` (stereo unspecified) gave a melting point of 179 to 181 °C.
Consider `O=Cc1cc(-c2ccccc2)cs1`, for which the melting point lay in the range of 63 to 65 °C.
In the case of `CC(C)(C)OC(=O)N1CCN(c2ccc(CN)cc2F)CC1` it was 69 to 71 °C.
Consider `Fc1ccc(-c2ccc(Cl)nn2)cc1`, for which the melting point fell in the range of 159 to 161 °C.
For `CN1C(=O)CCC(C(N)=O)C1c1cccs1` (stereo unspecified), the melting point fell in the range of 179 to 181 °C.
Consider `O=C(O)c1cc(-c2ccccc2)ns1`, for which the melting point is 183 to 185 °C.
As to `CN(C)C(=O)c1cnc(Cl)c(Cl)c1`, the melting point was in the range of 89 to 91 °C.
In turn, `Cc1cc(C)cc(-n2ncc(C=O)n2)c1` came in with a melting point of 64 to 66 °C.
Consider `CCN(CC)C(=O)N1CCCC(C(=O)O)C1` (stereo unspecified), for which the melting point lay within 94 to 96 °C.
In turn, `CC(Cl)C(=O)Nc1nc2ccc(F)cc2s1` (stereo unspecified) returned a melting point of 126 to 128 °C.
As for `COc1ccc(F)cc1C(=O)O`, the melting point is 87 to 91 °C.
In the case of `Nc1ccnc2ncnn12` it was 264 to 266 °C; in that of `NC(Cc1ccc(O)cc1)c1nc2ccccc2[nH]1` (stereo unspecified), 193 to 195 °C.
Regarding `CCN1CCN(c2ccc(Cl)cc2N)CC1`, the melting point was in the range of 110 to 112 °C.
`Cc1noc(-c2ccccc2N)n1` displayed a melting point of 120 to 122 °C.
As for `Cc1cc(C)n(-c2ccc(S(N)(=O)=O)cc2)n1`, the melting point was in the range of 243 to 245 °C.
For `O=C(O)c1ccccc1Oc1cccc(Br)c1`, the melting point was in the range of 108 to 110 °C.
Molecule `O=C(O)C(c1ccccc1)N1C(=O)CCC1=O` (stereo unspecified) gave a melting point of 194 to 196 °C.
The molecule `CS(=O)(=O)CCS(=O)(=O)Cl` had a melting point of 119 to 121 °C.
With `O=C(O)c1cn2cccnc2n1` the figure was 255 to 257 °C; with `Nc1ccccc1C(=O)N1CCCC1`, 85 to 89 °C; with `O=C1COc2ncc(C(=O)O)cc2N1`, 319 to 321 °C.
As for `Nc1nncc(-c2ccc(OC(F)F)cc2)n1`, the melting point lay in the range of 223 to 225 °C.
Regarding `Nc1cccc(N2CCS(=O)(=O)CC2)c1`, the melting point was 151 to 153 °C.
`O=C(O)CNCc1cccc(Br)c1`: the melting point fell in the range of 213 to 215 °C.
In the case of `CCOC(=O)c1cc(C2CC2)nc2onc(C(C)C)c12` it was 48 to 50 °C.
`CC(Sc1nncn1C)C(=O)O` (stereo unspecified) gave a melting point of 157 to 159 °C.
`O=C1NCCN2CCCCC12` (stereo unspecified) came in with a melting point of 134 to 136 °C.
In the case of `CC1CCCCC12NC(=O)N(CC(=O)O)C2=O` (stereo unspecified) it was 156 to 158 °C; in that of `O=C1OCCc2cnc3nc(C(F)(F)F)nn3c21`, 185 to 187 °C; in that of `Nc1nnc(C23CC4CC(CC(C4)C2)C3)s1`, 197 to 199 °C.
As for `CC(C)(C)OC(=O)c1nnsc1N`, the melting point is 134 to 136 °C.
With `NC(=S)c1cccc(NC(=O)C2CC2)c1` the figure was 181 to 183 °C; with `O=C(O)C1CSCCS1` (stereo unspecified), 58 to 60 °C.
